Assay results published in patent US20090149429A1, “ANTIVIRAL COMPOUNDS” (Myriad Genetics, Incorporated, priority 2005, published 2009).

Tested on: mock-infected MT-4 cells
Assay: Compound toxicity in mock-infected MT-4 cells (WST-1 assay)
Format: cell-based
Details: four days incubation, read-out: TC50 (concentration of compound that results in death of 50% of the host cells)
Description: The HTLV-1 transformed T cell line, MT-4, is highly susceptible to HIV-1 infection. Anti-HIV-1 agents were evaluated in this target cell line by protection from the HIV-induced cytopathic effect. In this assay, viability of both HIV-1 and mock-infected cells was assessed in a […] assay that monitors the ability of metabolically-active cells to reduce the tetrazolium salt WST-1. Cytoprotection by antiviral compounds is indicated by the positive readout of increased WST-1 cleavage.
Briefly, exponentially growing MT-4 cells were mock-infected or batch-infected with the HIV-1 laboratory strain, NL4-3, at a multiplicity of infection of 0.0005. Following a two hour infection, the cells were washed to remove unbound virus and plated in the presence of increasing concentrations of compound. After four days incubation, cytoprotection in the infected cells and compound toxicity in mock-infected cells were analyzed using the WST-1 assay.

SMILES	CC50 [µM]
C=C(C)[C@@H]1CC[C@]2(C(=O)NCc3ccc(C(=O)O)cc3)CC[C@]3(C)[C@H](CC[C@@H]4[C@@]5(C)CC[C@H](OC(=O)CC(C)(C)C(=O)O)C(C)(C)[C@@H]5CC[C@]43C)[C@@H]12 [Compound 37]	~7.7
C=C(C)[C@@H]1CC[C@]2(C(=O)NCc3ccccc3C(=O)O)CC[C@]3(C)[C@H](CC[C@@H]4[C@@]5(C)CC[C@H](OC(=O)CC(C)(C)C(=O)O)C(C)(C)[C@@H]5CC[C@]43C)[C@@H]12 [Compound 39]	~6.3
